Marks after values point to notes of the source that are not given here.
Experiments:
Assay type in all cases: in vivo
[1] = tested on: obesity mice model (C57BL/6 male mice, high-fat feed); experiment: Obesity animal model (high-fat feed), body weight; conditions: bacterial solution 1×10^8 cfu/ml by gavage; for Weight of mice, Week 9: Week 9, *P<0.05 relative to model group
Description: The obesity animal model is constructed by using C57BL/6 male mice (purchased from Guangdong Medical Experimental Animal Center) at 8 weeks old and 20±2 g of body weight, which is housed in a specific pathogen free (SPF) environment and access to food and water ad lib. The mice are randomly divided into 5 groups, with 10 mice in each group.
Bacterial agent group 1: mice were fed with high-fat feed every day, in which the AM25-6 bacterial solution (1×10^8 cfu/ml) was administered by gavage for 9 weeks after 4 weeks of feeding high-fat feed;
Bacterial agent group 2: mice were fed with high-fat feed every day, in which the DSM 17244 bacterial solution (1×10^8 cfu/ml) was administered by gavage for 9 weeks after 4 weeks of feeding high-fat feed;
Bacterial agent group 3: mice were fed with high-fat feed every day, in which the DSM 28733 bacterial solution (1×10^8 cfu/ml) was administered by gavage for 9 weeks after 4 weeks of feeding high-fat feed;
Obesity model group: mice were fed with high-fat feed every day, in which the culture medium in a same amount was administered by gavage for 9 weeks after 4 weeks of feeding high-fat feed.
During the experimental period, experimental data such as the body weight, body condition and food intake amount of mice were recorded every week. After the completion of experiment, the mice were sacrificed, and the fat weight was recorded and the serum was collected for detecting blood lipids by using the Elisa kit.

[2] = tested on: T2D mice model (C57bL/6 mice); experiment: T2D animal model (STZ plus high-fat feed), body weight; conditions: gavage
Description: (§1) The T2D animal model is constructed by using C57bL/6 mice (purchased from Guangdong Medical Experimental Animal Center) at 8 weeks old and 20±2 g of body weight. The mice were housed in a specific pathogen free (SPF) environment and adaptively fed for 1 week, followed by grouping and modeling. The T2D animal model is induced by injection of streptozotocin (STZ) along with feeding high-fat feed, and the mice having fasting blood glucose (FBG) reaching to 10 mM/L can be used as a T2D mice model. Fifty mice selected for experiments are randomly divided into 5 groups.
(§2) Bacterial agent group 1: the T2D mice model was administered with the AM25-6 bacterial solution (1×10^8 cfu/ml) by gavage;
(§3) Bacterial agent group 2: the T2D mice model was administered with the DSM 17244 bacterial solution (1×10^8 cfu/ml) by gavage;
(§4) Bacterial agent group 3: the T2D mice model was administered with the DSM 28733 bacterial solution (1×10^8 cfu/ml) by gavage;
(§5) Metformin treatment group: the T2D mice model was treated with the positive drug metformin.
(§6) The experiment was carried out based on the different groups. After the construction of T2D mice model (i.e., FBG>10), the treatment was started and lasted for 2 months. The food intake amount and body weight of mice were recorded daily. Blood of mice was collected from the tail vein every week for detection of fasting blood glucose. The oral glucose tolerance test (OGTT) of mice was measured at week 4 of treatment and at the end of the experiment.

[3] = tested on: T2D mice model (C57bL/6 mice); experiment: T2D animal model, fasting blood glucose
Description: as §1, §2, §3, §4, §5, §6

[4] = tested on: T2D mice model (C57bL/6 mice); experiment: T2D animal model, oral glucose tolerance test (OGTT); conditions: for Blood glucose in OGTT, 0 minute: 0 minute after glucose by gavage; for Blood glucose in OGTT, 30 minutes: 30 minutes after glucose by gavage; for Blood glucose in OGTT, 60 minutes: 60 minutes after glucose by gavage; for Blood glucose in OGTT, 90 minutes: 90 minutes after glucose by gavage; for Blood glucose in OGTT, 120 minutes: 120 minutes after glucose by gavage
Description: as §1, §6
The results of oral glucose tolerance test (OGTT) for mice shown in Table 8 indicate that the blood glucose of mice reaches the highest level (i.e., 17.8-23.1 mmol/L) at 30 minutes upon administration of glucose by gavage. […] From the perspective of overall glucose tolerance process, it can be seen that Anaerofustis stercorihominis can effectively ameliorate glucose intolerance in diabetic mice.

[5] = tested on: C57bL/6 mice fed with high-fat feed; experiment: Hyperlipidemia animal model (high-fat feed), blood lipids and blood viscosity; conditions: for blood viscosity: carotid artery blood, hemorheological examination; for HDLC (high-density lipoprotein) / LDLC (low-density lipoprotein) / TC (total cholesterol) / TG (triglyceride): serum, bacterial solution 2 ml 1×10^9 cfu/ml daily or tablets 0.6 g/kg
Description: Sixty C57bL/6 mice (purchased from Guangdong Medical Experimental Animal Center) at 6 weeks old were used in this experiment, which were normally fed in a Specific pathogen Free (SPF) environment. The mice were adaptively fed for 1 week and then randomly divided into 6 groups, with 10 mice in each group. The animal model is constructed along with intervention.
Bacterial agent group 1: the mice were fed with high-fat feed and 2 ml of AM25-6 bacterial solution (1×10^9 cfu/ml) daily;
Bacterial agent group 2: the mice were fed with high-fat feed and 2 ml of DSM 17244 bacterial solution (1×10^9 cfu/ml) daily;
Bacterial agent group 3: the mice were fed with high-fat feed and 2 ml of DSM 28733 bacterial solution (1×10^9 cfu/ml) daily;
Tongmai Jiangzhi tablet group (a positive drug for the treatment of hyperlipidemia): the mice were fed with high-fat feed and 0.6 g/kg Tongmai Jiangzhi tablets;
Experimental data such as the body condition, food intake amount and the like of mice was recorded every week before and after the intervention of the model. After the completion of experiment, the mice were sacrificed, and the fat content was recorded, the serum was collected for detection of blood lipid contents (including total cholesterol (TC), triglyceride (TG), high-density lipoprotein (HDLC) and low-density lipoprotein (LDLC)) in the serum according to the instruction of kit. Blood from the last carotid artery was taken for hemorheological examination.

[6] = tested on: SD rats, myocardial ischemia induced by pituitrin; experiment: Experimental myocardial ischemia in rats induced by pituitrin, ST-segment displacement; conditions: gavage daily for 10 days, pituitrin 1 unit/kg iv., **P<0.01, *P<0.05 relative to model group
Description: Fifty SD rats (purchased from Guangdong Medical Experimental Animal Center, half male and half female) at 180-220 g of body weight and 6 weeks old were used in this experiment, which were normally fed in a Specific pathogen Free (SPF) environment. The rats were adaptively fed for 1 week and then randomly divided into 5 groups, with 10 rats in each group.
Model group: the rats were fed with 2.5 ml/kg PBS by gavage daily for 10 consecutive days; Bacterial agent group 1: the rats were fed with 2.5 ml/kg AM25-6 bacterial solution (1×10^9 cfu/ml) by gavage daily for 10 consecutive days;
Bacterial agent group 2: the rats were fed with 2.5 ml/kg DSM 17244 bacterial solution (1×10^9 cfu/ml) by gavage daily for 10 consecutive days;
Bacterial agent group 3: the rats were fed with 2.5 ml/kg DSM 28733 bacterial solution (1×10^9 cfu/ml) by gavage daily for 10 consecutive days;
FuFangDanShen tablet group: the rats were fed with 2 g/kg FuFangDanShen tablet (SFDA approval number Z21020381, Tianjin Tasly (Liaoning) Pharmaceutical Co., Ltd.) by gavage daily for 10 consecutive days.
For each group, the standard lead I electrocardiogram was recorded post 1 hour of last administration, followed by sublingual intravenous injection (iv.) with pituitrin (SFDA approval number H31022259, specifications: 2 ml: 6 units, from Shanghai First Biochemical & Pharmaceutical Industry Co., Ltd.) in 1 unit/kg (in a volume of 1 ml/kg) within 15 seconds, after which the change of electrocardiogram was recorded post 5 seconds, 15 seconds, 30 seconds, 1 minute, 2 minutes, 3 minutes and 5 minutes, and the change of ST segment displacement before and after administration of pituitrin was measured and compared, with statistical analysis by using t test between groups.

[7] = Week 9, *P<0.05 relative to model group

With “Anaerofustis stercorihominis AM25-6 [Bacterial agent group 1]” the “Weight of mice, Week 1” value [1] was 21.13 g, the “Weight of mice, Week 3” value [1] was 22.59 g and the “Weight of mice, Week 5” value [1] was 23.98 g. The “Weight of mice, Week 7” value [1] was 24.13 g, the “Weight of mice, Week 9” value [1] was 25.47* g and the Body weight ([2]; Week 1) was 22.34 g. For the same substance, the Body weight ([2]; Week 3) was 23.57 g, the Body weight ([2]; Week 5) was 24.26 g and the Body weight ([2]; Week 7) was 25.53 g. For the same substance, the Body weight [2, 7] was 25.97* g, the “Fasting blood glucose, Week 1” value [3] was 16.1 mmol/L and the “Fasting blood glucose, Week 3” value [3] was 15.6 mmol/L. For the same substance, the “Fasting blood glucose, Week 5” value [3] was 13.2* mmol/L, the “Fasting blood glucose, Week 7” value [3] was 10.4** mmol/L and the “Fasting blood glucose, Week 9” value [3] was 8.6** mmol/L. The “Blood glucose in OGTT, 0 minute” value [4] was 9.1 mmol/L, the “Blood glucose in OGTT, 30 minutes” value [4] was 17.8 mmol/L and the “Blood glucose in OGTT, 60 minutes” value [4] was 15.9 mmol/L. For the same substance, the “Blood glucose in OGTT, 90 minutes” value [4] was 11.5* mmol/L, the “Blood glucose in OGTT, 120 minutes” value [4] was 10.1 mmol/L and the blood viscosity [5] was 1.26*. For the same substance, the “HDLC (high-density lipoprotein)” value [5] was 3.219 mmol/L, the “LDLC (low-density lipoprotein)” value [5] was 1.454* mmol/L and the “TC (total cholesterol)” value [5] was 4.014* mmol/L. For the same substance, the “TG (triglyceride)” value [5] was 0.893* mmol/L and the “ST-segment displacement (±S)” value [6] was 0.017 ± 0.011** mv.

“Anaerofustis stercorihominis DSM 17244 [Bacterial agent group 2]” was tested, and the “Weight of mice, Week 1” value [1] was 20.15 g, the “Weight of mice, Week 3” value [1] was 21.78 g and the “Weight of mice, Week 5” value [1] was 22.99 g. For the same substance, the “Weight of mice, Week 7” value [1] was 23.88 g, the “Weight of mice, Week 9” value [1] was 25.62* g and the Body weight ([2]; Week 1) was 21.55 g. It also gave a Body weight ([2]; Week 3) of 22.43 g, a Body weight ([2]; Week 5) of 23.78 g and a Body weight ([2]; Week 7) of 25.13 g. For the same substance, the Body weight [2, 7] was 25.58* g, the “Fasting blood glucose, Week 1” value [3] was 15.8 mmol/L and the “Fasting blood glucose, Week 3” value [3] was 15.7 mmol/L. For the same substance, the “Fasting blood glucose, Week 5” value [3] was 14.6 mmol/L, the “Fasting blood glucose, Week 7” value [3] was 11.7* mmol/L and the “Fasting blood glucose, Week 9” value [3] was 9.0** mmol/L. For the same substance, the “Blood glucose in OGTT, 0 minute” value [4] was 9.7 mmol/L, the “Blood glucose in OGTT, 30 minutes” value [4] was 18.0 mmol/L and the “Blood glucose in OGTT, 60 minutes” value [4] was 14.9 mmol/L. The “Blood glucose in OGTT, 90 minutes” value [4] was 12.1* mmol/L, the “Blood glucose in OGTT, 120 minutes” value [4] was 9.9 mmol/L and the blood viscosity [5] was 1.29*. For the same substance, the “HDLC (high-density lipoprotein)” value [5] was 3.219 mmol/L, the “LDLC (low-density lipoprotein)” value [5] was 1.585* mmol/L and the “TC (total cholesterol)” value [5] was 4.021* mmol/L. For the same substance, the “TG (triglyceride)” value [5] was 0.933* mmol/L and the “ST-segment displacement (±S)” value [6] was 0.018 ± 0.012** mv.

With “Anaerofustis stercorihominis DSM 28733 [Bacterial agent group 3]” the “Weight of mice, Week 1” value [1] was 21.19 g, the “Weight of mice, Week 3” value [1] was 22.44 g and the “Weight of mice, Week 5” value [1] was 23.78 g. The “Weight of mice, Week 7” value [1] was 24.19 g, the “Weight of mice, Week 9” value [1] was 25.67* g and the Body weight ([2]; Week 1) was 21.76 g. For the same substance, the Body weight ([2]; Week 3) was 23.36 g, the Body weight ([2]; Week 5) was 24.57 g and the Body weight ([2]; Week 7) was 25.14 g. The Body weight [2, 7] was 25.45* g, the “Fasting blood glucose, Week 1” value [3] was 16.7 mmol/L and the “Fasting blood glucose, Week 3” value [3] was 15.5 mmol/L. For the same substance, the “Fasting blood glucose, Week 5” value [3] was 13.6* mmol/L, the “Fasting blood glucose, Week 7” value [3] was 10.4** mmol/L and the “Fasting blood glucose, Week 9” value [3] was 7.8** mmol/L. The “Blood glucose in OGTT, 0 minute” value [4] was 9.6 mmol/L, the “Blood glucose in OGTT, 30 minutes” value [4] was 18.2 mmol/L and the “Blood glucose in OGTT, 60 minutes” value [4] was 15.6 mmol/L. For the same substance, the “Blood glucose in OGTT, 90 minutes” value [4] was 11.7* mmol/L, the “Blood glucose in OGTT, 120 minutes” value [4] was 10.2 mmol/L and the blood viscosity [5] was 1.25*. The “HDLC (high-density lipoprotein)” value [5] was 3.311 mmol/L, the “LDLC (low-density lipoprotein)” value [5] was 1.423* mmol/L and the “TC (total cholesterol)” value [5] was 4.017* mmol/L. The “TG (triglyceride)” value [5] was 0.912* mmol/L and the “ST-segment displacement (±S)” value [6] was 0.020 ± 0.012** mv.

From patent US11903981B2, “Use of Anaerofustis stercorihominis in preventing and/or treating metabolic diseases” (priority 2018, dated 2024)
